Reference: patent US8026255B2, “Substituted piperidines as somatostatin receptor subtype 5 (SSTR5) antagonists” (Hoffman-La Roche Inc., priority 2006, dated 2011)
pKi: −log10 of the molar value.

molecular target: T1, human subtype 5 somatostatin receptor (Homo sapiens, UniProt P35346); experiment: SSTR5 radioligand binding assay (membranes of transfected CHO cells, 125I-labeled 11-Tyr somatostatin-14 tracer); conditions: CHO cell membranes, Ki calculated from IC50 by Cheng-Prussoff equation
T1 construct: host or cells: CHO cells, stably transfected; membranes prepared from them
T1 sequence (P35346 whole entry): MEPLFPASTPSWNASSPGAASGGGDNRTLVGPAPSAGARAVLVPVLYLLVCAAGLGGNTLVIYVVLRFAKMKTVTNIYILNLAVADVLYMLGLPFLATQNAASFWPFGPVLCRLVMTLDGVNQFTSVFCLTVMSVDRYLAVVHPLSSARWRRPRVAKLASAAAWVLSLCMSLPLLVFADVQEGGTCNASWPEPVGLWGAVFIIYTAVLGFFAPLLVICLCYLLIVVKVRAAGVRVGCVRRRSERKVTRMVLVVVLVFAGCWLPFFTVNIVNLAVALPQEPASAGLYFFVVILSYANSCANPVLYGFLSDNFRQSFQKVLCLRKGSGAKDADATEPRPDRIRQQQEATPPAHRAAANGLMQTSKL
Experimental: A CHO cell line stably transfected with a plasmid encoding the human subtype 5 somatostatin receptor (GenBank accession number D16827) was obtained from Euroscreen. Cells were cultured and used for binding and functional assays.
Membranes of these cells were prepared by sonication in the presence of protease inhibitors and subsequent fractionating centrifugation. The protein concentration in the membrane preparation was determined using a commercial kit (BCA kit, Pierce, USA). Membranes were stored at −80° C. until use. After thawing, membranes were diluted in assay buffer (50 mM Tris-HCl at pH 7.4, 5 mM MgCl2 and 0.20% BSA) and subjected to dounce homogenization.
For binding studies, 0.1 mL membrane suspension, corresponding to app. 6×10^−15 mol receptor, was incubated for 1 h at room temperature with 0.05 nM ^125I-labeled tracer (11-Tyr somatostatin-14, Perkin-Elmer) and either test compounds in varying concentrations or, for the determination of non-specific binding, 0.001 mM non-labeled somatostatin-14. The incubation was stopped by filtration through GF/B glassfiber filters and washing with ice-cold wash buffer (50 mM Tris-HCl at pH 7.4). The bound radioactivity was measured after application of a scintillation cocktail (Microscint 40) and expressed as disintegrations per minute (dpm).
The receptor concentration was determined in a prior saturation experiment where a fixed, arbitrary amount of membranes was incubated with a concentration range of radio-labeled tracer. This allows estimating the total number of specific binding sites per amount of protein (i.e., Bmax), typically between 1 and 5 pmol/mg.
The concentration of the test compound required to result in half maximal inhibition of binding of the radio-labeled tracer (IC50) was estimated from a concentration-versus-dpm graph. The binding affinity (Ki) was calculated from the IC50 by applying the Cheng-Prussoff equation for single binding sites.

pKi	SMILES
6.10	CCOc1cc(CN2CCC(Nc3nc(C)c(-c4ccccc4)cc3C#N)CC2)ccc1OC [Example 24, 2-[1-(3-ethoxy-4-methoxy-benzyl)-piperidin-4-ylamino]-6-methyl-5-phenyl-nicotinonitrile]
7.07	CCOc1cc(CN2CCC(Nc3cnc(C(N)=O)cn3)CC2)ccc1Cl [Example 205, 5-[1-(4-Chloro-3-ethoxy-benzyl)-piperidin-4-ylamino]-pyrazine-2-carboxylic acid amide]
8.15	CCOc1cc(CN2CCC(Nc3ccc4ccccc4n3)CC2)cc(OCC)c1F [Example 103, [1-(3,5-diethoxy-4-fluoro-benzyl)-piperidin-4-yl]-quinolin-2-yl-amine]
